Earlier results, collected in patent US9089636B2, “Methods and devices for delivering GLP-1 and uses thereof” (VALERITAS, INC., priority 2004, dated 2015).
Read-outs that look alike come from different tables or passages of the source. Values belong to the compound of their own block, whether it stands above or below them. No end group written: not given here.

Columns and labels:
[1] = tested on: rat PC12 pheochromocytoma cell line
[2] = tested on: Min6 mouse islet cells
[3] = tested on: rats; settings: for blood pressure and heart rate: centrally and peripherally administered
[4] = molecular target: cloned GLP-1 receptor (Homo sapiens, UniProt P43220)
Sequence of cloned GLP-1 receptor (P43220 24-463): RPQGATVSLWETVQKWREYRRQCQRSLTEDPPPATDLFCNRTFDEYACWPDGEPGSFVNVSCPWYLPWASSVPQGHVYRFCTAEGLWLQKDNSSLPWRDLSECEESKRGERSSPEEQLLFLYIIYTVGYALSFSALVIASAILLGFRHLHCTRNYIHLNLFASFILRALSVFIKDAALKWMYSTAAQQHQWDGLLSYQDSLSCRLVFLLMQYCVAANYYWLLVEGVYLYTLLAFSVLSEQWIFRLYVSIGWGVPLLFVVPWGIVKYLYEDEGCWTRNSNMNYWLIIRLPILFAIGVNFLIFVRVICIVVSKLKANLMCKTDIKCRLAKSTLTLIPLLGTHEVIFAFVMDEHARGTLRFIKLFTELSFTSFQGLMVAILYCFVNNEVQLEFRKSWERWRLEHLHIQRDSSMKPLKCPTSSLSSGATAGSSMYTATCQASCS

[5] = tested on: subjects with type 2 diabetes; settings: following a liquid test meal
[6] = tested on: human islets; settings: 5 days
[7] = tested on: cultured myotubes; settings: 0.1-1 pM
[8] = tested on: cultured fetal rat hippocampal neurons; settings: for extent of glutamate-induced cell death: short term cultures
[9] = tested on: Multiple cell models
[10] = tested on: young and old rats; settings: infusion for 5 days
[11] = tested on: human NIP cells
[12] = tested on: neonatal GK rat; settings: 5 days
[13] = tested on: calpain
[14] = tested on: human subjects with LV dysfunction and acute MI
[15] = tested on: rat cardiac myocytes
[16] = tested on: muscle strips
[17] = tested on: human subjects; settings: physiologically relevant concentrations
[18] = tested on: lean mice; settings: subcutaneous, 2 days
[19] = tested on: fetal pig islet clusters; settings: 75-90 day gestational age
[20] = tested on: pigs
[21] = tested on: INS-1 cells
[22] = tested on: Multiple islet cell lines
[23] = tested on: salt-sensitive rats; settings: 14 day treatment, high salt diet
[24] = tested on: RIN1046-38 cells
[25] = tested on: rats; settings: ICV
[26] = tested on: human volunteers; settings: 60 minute infusion, 30 pmol/kg/h
[27] = tested on: rats; settings: for effect on GLP-1-induced fecal output: rat, in vivo
[28] = tested on: AR42J cell line
[29] = tested on: Zucker diabetic rats; settings: 2 day infusion
[30] = tested on: BHK fibroblasts expressing a transfected GLP-1 receptor
[31] = molecular target: dipeptidylaminopeptidase IV (DPP-IV) (Homo sapiens, UniProt P27487)
Sequence of dipeptidylaminopeptidase IV (DPP-IV) (P27487 whole entry, species assumed): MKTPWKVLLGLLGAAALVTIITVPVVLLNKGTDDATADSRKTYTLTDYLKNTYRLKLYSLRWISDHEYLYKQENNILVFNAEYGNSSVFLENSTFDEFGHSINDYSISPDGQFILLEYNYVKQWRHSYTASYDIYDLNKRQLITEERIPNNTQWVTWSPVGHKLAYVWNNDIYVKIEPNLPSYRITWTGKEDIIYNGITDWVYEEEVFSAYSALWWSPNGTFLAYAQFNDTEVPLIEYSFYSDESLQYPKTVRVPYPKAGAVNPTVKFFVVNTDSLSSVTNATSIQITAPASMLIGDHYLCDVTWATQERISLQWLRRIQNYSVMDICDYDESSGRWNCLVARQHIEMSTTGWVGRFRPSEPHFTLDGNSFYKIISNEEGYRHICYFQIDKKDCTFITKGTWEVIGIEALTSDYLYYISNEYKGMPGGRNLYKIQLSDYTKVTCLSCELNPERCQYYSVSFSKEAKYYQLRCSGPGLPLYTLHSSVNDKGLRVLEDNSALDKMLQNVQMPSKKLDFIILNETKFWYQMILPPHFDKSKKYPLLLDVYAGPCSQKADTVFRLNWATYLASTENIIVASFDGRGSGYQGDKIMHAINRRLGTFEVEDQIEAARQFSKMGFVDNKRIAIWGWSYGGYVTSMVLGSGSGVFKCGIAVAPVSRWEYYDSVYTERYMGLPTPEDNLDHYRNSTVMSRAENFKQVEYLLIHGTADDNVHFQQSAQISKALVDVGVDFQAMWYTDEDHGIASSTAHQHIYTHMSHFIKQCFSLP

[32] = in vivo
[33] = tested on: CNS; settings: in vivo
[34] = tested on: hippocampal neurons; settings: systemic administration
[35] = tested on: human subjects; settings: infusion
[36] = tested on: mice
[37] = tested on: human islet-like cell clusters; settings: 4 days in vitro
[38] = tested on: blood brain barrier; settings: CD1 mice
[39] = tested on: db/db mice; settings: daily for 14 days
[40] = tested on: ob/ob mice
[41] = tested on: rat pancreatectomy model; settings: in vivo
[42] = tested on: db/db mice
[43] = tested on: purified rat b cells; settings: combination of cytotoxic cytokines
[44] = tested on: Capan-1
[45] = after 72-hour infusion at 1.5 pmol/kg per minute
[46] = after reperfusion, before GLP-1 infusion

Compound: O=S(=O)(NCCNC/C=C/c1ccc(Br)cc1)c1cccc2cnccc12 [H-89]
effect on the differentiation actions of GLP-1 [1]: only modest effects

Compound: COc1cccc(-c2cc(=O)c3ccccc3o2)c1N [PD98059]
effect on the differentiation actions of GLP-1 [1]: abrogated

Compound: Nc1ncnc2c1ncn2[C@@H]1O[C@@H]2COP(O)(=S)O[C@H]2[C@H]1O (some centres unmarked) [Rp-cAMP, reference compound]
effect on the anti-apoptotic effects of GLP-1 [2]: partially blocked

Compound: CN1[C@@H]2CC[C@H]1C[C@@H](OC(=O)C(CO)c1ccccc1)C2 (some centres unmarked) [atropine]
effect on the stimulatory effect of GLP-1 on blood pressure ([3]; normal rats): prevented

Compound: CNC1(C)C2CCC(C2)C1(C)C (centres unmarked) [mecamylamine]
effect on the GLP-1-dependent increase in heart rate ([3]; normal rats): blocked
effect on the stimulatory effect of GLP-1 on blood pressure ([3]; normal rats): prevented

effect on the action of GLP-1 7-36 amide [4]: antagonized
Compound: GLP-1 (9-36)amide (EGTFTSDVSSYLEGQAAKEFIAWLVKGR-NH2; UniProt P01275 100-127, looked up, fragment) [GLP-1 (9-36) amide, truncated fragment, primary metabolite of GLP-1 produced by DPP-IV]

Compound: Glucagon-like peptide-1 [GLP-1]
gastric emptying [5]: inhibits
cell death [6]: decreased
glucose-stimulated insulin secretion [6]: improved
glucose incorporation into glycogen [7]: stimulated
protection against glutamate-induced apoptosis [8]: completely protect
extent of glutamate-induced cell death [8]: significantly reduced
Gene or Protein activated by GLP-1 [9]: Insulin RNA
β cell mass [10]: increased
insulin expression in subsets of cells [11]: induced
pancreatic insulin content and total beta-cell mass [12]: enhanced
calpain activity [13]: decreased
peak plasma level of GLP-1 (continuous 5 day subcutaneous infusion): 88.7 pM
peak plasma level of GLP-1 (subcutaneous injection 30 minutes before meals): 269.4 pM
LVEF [14, 45]: 39+2%
global wall motion score indexes [14, 45]: 1.63 ± 0.09
regional wall motion score indexes [14, 45]: 2.02 ± 0.11
LVEF [14, 46]: 29+2%
global wall motion score indexes [14, 46]: 1.94 ± 0.11
regional wall motion score indexes [14, 46]: 2.53 ± 0.08
plasma glucose and free fatty acids ([14]; human, in vivo): significant decrease
contraction amplitude [15]: decrease
intracellular cAMP [15]: increased
glycogen synthesis [16]: stimulated
pentagastrin-stimulated gastric acid secretion [17]: inhibited
islet labeling index [18]: increased
glucose-dependent insulin secretion [19]: promoted
cephalic-induced antral motility [20]: strongly inhibited
Gene or Protein activated by GLP-1 ([21]; Akt and IRS proteins): Akt and IRS proteins
Gene or Protein activated by GLP-1 ([21]; Calcineurin and NFAT): Calcineurin and NFAT
Gene or Protein activated by GLP-1 ([21]; Glucokinase): Glucokinase
Gene or Protein activated by GLP-1 ([21]; Immediate early genes): Immediate early genes
Gene or Protein activated by GLP-1 ([21]; Kir 6.2 RNA): Kir 6.2 RNA
Gene or Protein activated by GLP-1 [22]: Pdx-1 RNA and protein
development of hypertension [23]: reduced
Gene or Protein activated by GLP-1 ([24]; GLUT-1 RNA): GLUT-1 RNA
Gene or Protein activated by GLP-1 ([24]; Hexokinase I RNA): Hexokinase I RNA
Gene or Protein activated by GLP-1 ([24]; SNAP-25 phosphorylation): SNAP-25 phosphorylation
food intake [25]: dose-dependently inhibits
extent of hydrogen peroxide-induced apoptosis ([2]; in vitro): reduced
Rd (glucose disposal) [26]: no significant change
decrease in Ra (endogenous glucose production) [26]: 17%
plasma glucose [26]: decreased
fecal output ([27]; ICV): increase
differentiation to an endocrine phenotype [28]: promotes
blood pressure and heart rate [3]: dose-dependently increased
islet size and β cell mass [29]: increased
percentage of apoptotic β cells [29]: significantly reduced
cell survival [30]: increased

DPP-IV degradation [31]: resistant
optimum plasma levels [32]: 30-200 picomoles/liter
Compound: Val8-GLP-1(7-37)OH

Compound: [Ser8]GLP-1 (HSEGTFTSDVSSYLEGQAAKEFIAWLVKGRG; also: radiolabel, position not given here; UniProt P01275 98-128, looked up, variant A8S)
uptake into the CNS [33]: not saturable

Compound: [Ser(2)]exendin(1-9)
kainate-induced apoptosis of hippocampal neurons [34]: prevents

Compound: astressin
effect on GLP-1-induced fecal output [27]: blocked

Compound: exendin (9-39)
effect on the insulinotropic and glucagonostatic effects of exogenous GLP-1 [35]: blocked
food intake [25]: increased
effect on GLP-1-induced fecal output [27]: blocked

Compound: exendin-4
β cell apoptosis induced by streptozotocin (STZ) [36]: reduced
protection against glutamate-induced apoptosis [8]: completely protect
extent of glutamate-induced cell death [8]: significantly reduced
Pdx-1 expression [37]: enhance
insulin expression [37]: not
insulin expression in subsets of cells [11]: induced
pancreatic insulin content and total beta-cell mass [12]: enhanced
crossing of the blood brain barrier [38]: readily crosses
numbers of Tunel+ apoptotic β cells [39]: reduced
progression to more frank diabetes [39]: prevented
β cell mass [39]: increased
differentiation to an endocrine phenotype [28]: promotes
blood pressure and heart rate [3]: dose-dependently increased
cell survival [30]: increased
β cell proliferation [40]: not
glucose intolerance following partial pancreatectomy [41]: attenuates
islet neogenesis and β cell proliferation [41]: increases
β cell proliferation [42]: increased
extent of apoptotic cell death [43]: directly reduced
number of cells exhibiting immunopositivity for insulin or glucagon [44]: significant increase
